Measured values as given in article PMC10380619, “Inhibitor Trapping in N-Myristoyltransferases as a Mechanism for Drug Potency” (International Journal of Molecular Sciences, 2023).

What was measured:
NMT = settings: cited from earlier work; for IC50: fragments as single agents
[1] = biological target: T1, full-length recombinant HsNMT1 enzyme (Homo sapiens, UniProt P30419); assay: fluorogenic NMT inhibition assay; format: biochemical
T1 construct: 18.9 nM full-length recombinant HsNMT1 enzyme was incubated; purchased Fitzgerald Industries International 80R-4067
T1 sequence (P30419 1-496): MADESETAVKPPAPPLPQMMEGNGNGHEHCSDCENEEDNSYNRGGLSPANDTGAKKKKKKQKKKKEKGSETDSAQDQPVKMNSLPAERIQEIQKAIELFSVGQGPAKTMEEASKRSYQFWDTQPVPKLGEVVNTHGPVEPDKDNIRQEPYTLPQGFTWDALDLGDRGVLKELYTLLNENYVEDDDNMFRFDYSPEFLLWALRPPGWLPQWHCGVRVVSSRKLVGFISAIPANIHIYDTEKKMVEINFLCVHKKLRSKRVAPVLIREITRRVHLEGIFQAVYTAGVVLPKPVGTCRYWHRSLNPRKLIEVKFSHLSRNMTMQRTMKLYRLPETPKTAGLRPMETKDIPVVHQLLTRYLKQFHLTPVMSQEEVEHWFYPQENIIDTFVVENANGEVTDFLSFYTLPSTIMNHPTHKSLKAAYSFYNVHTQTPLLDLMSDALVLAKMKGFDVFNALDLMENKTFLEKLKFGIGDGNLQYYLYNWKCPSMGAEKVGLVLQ
Protocol: Materials and reagents. […] The ZINC IDs and the structures of the compounds are included in Table S1. […] CPM (7-Diethylamino-3- (4-maleimidophenyl)-4-methylcoumarin) and Myristoyl-CoA were purchased from Cayman Chemicals, and the buffer components from Merck (Kenilworth, NJ, USA).
NMT inhibition assay. IC50 values were determined using a fluorogenic NMT assay, as previously described. The assay detects Coenzyme A (CoA), which is released as a byproduct of the enzymatic reaction. […] The reactions were performed in reaction buffer (20 mM potassium phosphate, pH 8.0, 0.5 mM EDTA, 0.1% (v/v) Triton® X-100) in 44 µL volume in a 96-well black plate. To eliminate the background fluorescence, reactions were also performed in the absence of the NMT1 enzyme for each concentration of the ligands. […] Fluorescence was measured at an excitation wavelength of 380 nm and an emission wavelength of 470 nm with a CLARIOstar fluorescent reader (BMG LABTECH GmbH, Ortenberg, Germany). The fluorescent values of samples obtained in the absence of NMT1 were subtracted from the fluorescent signal of samples performed in the presence of NMT1 to eliminate the background signal. The subtracted values were plotted in GraphPad Prism using a log (inhibitor concentration) vs. normalized response nonlinear fit to generate inhibitory curves and determine IC50 values.

Row | IC50 ([1]; 18.9 nM HsNMT1, 4 µM Myristoyl-CoA, 4 µM substrate peptide, highest concentration 100 µM) [µM] | % Inhibition ([1]; at concentration of the compounds 100 µM) [%] | Fold Potency ([1]; ratio of IC50 of each compound to IC50 of IMP-1088) | SMILES | IC50 (NMT) [µM] | fold reduction of IC50 of IMP-72 by IMP-358 (NMT; in the presence of 100 µM IMP-358) [fold]
1 | – | – | – | Cc1cc(F)ccc1-c1ccc2[nH]nc(CN(C)C)c2c1 [IMP-72] | 20 | 308
2 | – | – | – | CCOC(=O)c1c(C)nc2ccccc2c1C [IMP-358] | > 100 | –
3 | > 100 | 0 | >13,158 | Cc1nc(Nc2cnn(C3CCNCC3)c2)nc2c1N(C)C(=O)c1cc3ccccc3cc1N2C [compound 11] | – | –
